Conditions: Liquid; for speed of sound: Pulse-echo method; for mass density: Vibrating tube method

CCCCCCCCCCCCCC(=O)OCC [ethyl tetradecanoate]
Conditions | mass density [kg/m3] | speed of sound [m/s]
293.15 K, 100 kPa | – | 1360.6
293.15 K, 101.3 kPa | 861 | –
293.15 K, 10000 kPa | 867.5 | 1408
293.15 K, 20000 kPa | 873.2 | 1453.3
293.15 K, 30000 kPa | 878.7 | 1494.5
293.15 K, 40000 kPa | 883.8 | 1533.5
293.15 K, 50000 kPa | 888.7 | 1568.2
293.15 K, 60000 kPa | 893.6 | –
303.15 K, 100 kPa | – | 1321.8
303.15 K, 101.3 kPa | 853.3 | –
303.15 K, 10000 kPa | 860.2 | 1370.9
303.15 K, 20000 kPa | 866.2 | 1416.8
303.15 K, 30000 kPa | 871.9 | 1460.6
303.15 K, 40000 kPa | 877.3 | 1500.8
303.15 K, 50000 kPa | 882.2 | 1539.9
303.15 K, 60000 kPa | 887 | –
303.15 K, 70000 kPa | 891.7 | –
303.15 K, 80000 kPa | 896 | –
303.15 K, 90000 kPa | 900.3 | –
303.15 K, 100000 kPa | 904.4 | –
313.15 K, 101.3 kPa | 845.6 | –
313.15 K, 10000 kPa | 852.7 | –
313.15 K, 20000 kPa | 859 | –
313.15 K, 30000 kPa | 864.9 | –
313.15 K, 40000 kPa | 870.5 | –
313.15 K, 50000 kPa | 875.7 | –
313.15 K, 60000 kPa | 880.8 | –
313.15 K, 70000 kPa | 885.5 | –
313.15 K, 80000 kPa | 890.8 | –
313.15 K, 90000 kPa | 894.9 | –
313.15 K, 100000 kPa | 899.1 | –
323.15 K, 100 kPa | – | 1251.8
323.15 K, 101.3 kPa | 838.5 | –
323.15 K, 10000 kPa | 845.4 | 1304.5
323.15 K, 20000 kPa | 852 | 1353.4
323.15 K, 30000 kPa | 858.2 | 1398.6
323.15 K, 40000 kPa | 863.9 | 1441.1
323.15 K, 50000 kPa | 869.2 | 1482.4
323.15 K, 60000 kPa | 874.7 | 1519.7
323.15 K, 70000 kPa | 879.8 | 1555.8
323.15 K, 80000 kPa | 884.5 | 1590.8
323.15 K, 90000 kPa | 888.9 | 1624.6
323.15 K, 100000 kPa | 893.1 | 1655.7
333.15 K, 101.3 kPa | 830.6 | –
333.15 K, 10000 kPa | 838 | –
333.15 K, 20000 kPa | 844.9 | –
333.15 K, 30000 kPa | 851.3 | –
333.15 K, 40000 kPa | 857.2 | –
333.15 K, 50000 kPa | 862.9 | –
333.15 K, 60000 kPa | 868.2 | –
333.15 K, 70000 kPa | 874 | –
333.15 K, 80000 kPa | 878 | –
333.15 K, 90000 kPa | 883.4 | –
333.15 K, 100000 kPa | 888 | –
343.15 K, 100 kPa | – | 1184.7
343.15 K, 101.3 kPa | 823.2 | –
343.15 K, 10000 kPa | 831.1 | 1241.3
343.15 K, 20000 kPa | 838.6 | 1293
343.15 K, 30000 kPa | 845.2 | 1341.9
343.15 K, 40000 kPa | 851.3 | 1386.7
343.15 K, 50000 kPa | 857.1 | 1428.8
343.15 K, 60000 kPa | 862.5 | 1468.1
343.15 K, 70000 kPa | 867.7 | 1506.4
343.15 K, 80000 kPa | 872.8 | 1541.9
343.15 K, 90000 kPa | 877.5 | 1576.2
343.15 K, 100000 kPa | 882.1 | 1609.1
353.15 K, 101.3 kPa | 815.6 | –
353.15 K, 10000 kPa | 823.9 | –
353.15 K, 20000 kPa | 831.8 | –
353.15 K, 30000 kPa | 838.7 | –
353.15 K, 40000 kPa | 845 | –
353.15 K, 50000 kPa | 850.8 | –
353.15 K, 60000 kPa | 856.4 | –
353.15 K, 70000 kPa | 861.8 | –
353.15 K, 80000 kPa | 866.9 | –
353.15 K, 90000 kPa | 871.8 | –
353.15 K, 100000 kPa | 876.4 | –
363.15 K, 100 kPa | – | 1120
363.15 K, 101.3 kPa | 808.4 | –
363.15 K, 10000 kPa | 816.6 | 1181.8
363.15 K, 20000 kPa | 824.6 | 1236.4
363.15 K, 30000 kPa | 831.8 | 1287.1
363.15 K, 40000 kPa | 838.6 | 1334.2
363.15 K, 50000 kPa | 845 | 1377.5
363.15 K, 60000 kPa | 850.6 | 1418.8
363.15 K, 70000 kPa | 856.1 | 1457.6
363.15 K, 80000 kPa | 861.3 | 1495.5
363.15 K, 90000 kPa | 866.3 | 1531
363.15 K, 100000 kPa | 871.1 | 1564.6
373.15 K, 101.3 kPa | 800.1 | –
373.15 K, 10000 kPa | 809.9 | –
373.15 K, 20000 kPa | 817.9 | –
373.15 K, 30000 kPa | 825.5 | –
373.15 K, 40000 kPa | 832.4 | –
373.15 K, 50000 kPa | 838.8 | –
373.15 K, 60000 kPa | 844.9 | –
373.15 K, 70000 kPa | 850.6 | –
373.15 K, 80000 kPa | 856.2 | –
373.15 K, 90000 kPa | 861.3 | –
373.15 K, 100000 kPa | 866.1 | –
383.15 K, 100 kPa | – | 1056.9
383.15 K, 101.3 kPa | 792.1 | –
383.15 K, 10000 kPa | 802.1 | 1122.3
383.15 K, 20000 kPa | 810.7 | 1181.7
383.15 K, 30000 kPa | 818.5 | 1235.6
383.15 K, 40000 kPa | 825.9 | 1284.7
383.15 K, 50000 kPa | 832.5 | 1330.3
383.15 K, 60000 kPa | 838.9 | 1372.3
383.15 K, 70000 kPa | 845 | 1412.6
383.15 K, 80000 kPa | 850.5 | 1450.4
383.15 K, 90000 kPa | 855.9 | 1486.9
383.15 K, 100000 kPa | 861 | 1521.7
393.15 K, 101.3 kPa | 784.5 | –
393.15 K, 10000 kPa | 794.6 | –
393.15 K, 20000 kPa | 803.7 | –
393.15 K, 30000 kPa | 812 | –
393.15 K, 40000 kPa | 819.5 | –
393.15 K, 50000 kPa | 826.4 | –
393.15 K, 60000 kPa | 832.9 | –
393.15 K, 70000 kPa | 839.8 | –
393.15 K, 80000 kPa | 845.6 | –
393.15 K, 90000 kPa | 851 | –
393.15 K, 100000 kPa | 855.6 | –
403.15 K, 100 kPa | – | 996.1
403.15 K, 10000 kPa | – | 1067.2
403.15 K, 20000 kPa | – | 1130.3
403.15 K, 30000 kPa | – | 1186.1
403.15 K, 40000 kPa | – | 1237.3
403.15 K, 50000 kPa | – | 1284.9
403.15 K, 60000 kPa | – | 1327.9
403.15 K, 70000 kPa | – | 1370
403.15 K, 80000 kPa | – | 1409.7
403.15 K, 90000 kPa | – | 1447.5
403.15 K, 100000 kPa | – | 1483.2
